In publication PMC4460047 (PLoS ONE, 2015):
“And” between values parts separate entries of the source, which are not always exact repeats. Equal entries are not always repeated. Marks after values point to notes of the source that are not given here.

What was measured:
[1] = Chemical stability in phosphate buffered saline pH 7.4; format: physicochemical; conditions: for %Compd at 6 h, pH 7.4: percent remaining after 6 h of incubation at 37°C in PBS buffer pH 7.4; for L- and D-aspartate derivatives produced by deamidation at the side chain: buffer pH 7.4, data not shown
Description: (§1) The chemical and metabolic stability of PEA and all prodrugs were studied by incubating each compound (5 μL of a […] solution in DMSO, or DMSO as control) with 495 μL of 10 mM phosphate buffered saline pH 7.4 for chemical stability, 80% v/v rat plasma or 20% w/v rat liver homogenate prepared accordingly to previously described procedures for metabolic stability, reaching a final concentration of 50 nm for the test compound.
(§2) Rat plasma and liver samples were pre-incubated at 37°C for 10 min before adding the compounds. After incubation for different time periods (0, 15, 30, 60, 120, 240 and 360 min), samples were deproteinized by adding 100 μL of acetonitrile with 75 nmol L^-1 IS (PEA-d4). The samples were centrifuged (14 000 g, 10 min, 4°C), and the supernatants were analyzed by HPLC–ESI–MS/MS. For each tested compound, a multiple reaction monitoring (MRM) ESI–MS/MS method was set up in order to monitor the relative concentration of compound and released PEA at the different incubation times, compared to the time t = 0, in rat plasma and liver homogenate.

[2] = Stability and PEA release in 80% v/v rat plasma; format: in vitro ADME; conditions: for half-life at 50 nM: rat, pH 7.4, 80% v/v rat plasma, read-out: Rat Plasma Compd t 1/2; for half-life at 50 nM / Rat Plasma Compd t 1/2: 50 nm compound; for remaining at 6 h, 50 nM: pH 7.4, read-out: Percent remaining after 6 h incubation in rat plasma
Description: as §1, §2
Cmax and tmax in rat plasma were read from the raw data as the coordinates of the highest concentration observed. A Thermo TSQ Quantum triple-quadrupole mass spectrometer (Thermo Italia, Milan, Italy) with heated electrospray ionization (H-ESI) ion source was used for mass detection and analysis. Mass spectrometric analyses were done in positive ion mode. H-ESI interface parameters were set as follows: probe middle (D) position; capillary temperature 270°C; spray voltage 3.0 kV. Nitrogen was used as nebulizing gas at the following pressure: sheath gas 35 psi; auxiliary gas 15 arbitrary units (a.u.). Argon was used as the collision gas at a pressure of approximately 1.5 mtorr (1 torr = 133.3 Pa). For quantitative analysis, the following parent ion → product ions transitions were selected: PEA (1): m/z 300.2 → m/z 62.3 (tube lens 60 V; collision energy 19 eV); PEA-d4 (Internal Standard): m/z 304.2 → m/z 66.3 + m/z 287.2 (tube lens 72 V; collision energy 15, 12 eV). MRM transitions, tube lens voltages and collision energies for compounds 3–5, 7–9, 19–24, 26–31, and 33 are reported in the S1 File. […] The coefficients of correlation (r^2) were >0.99 for all curves. The LOQ was 1 nmol mL^−1 for all analytes. Extraction efficiency was determined by comparing the peak area ratio of spiked samples at three concentration levels (low, intermediate, and high) to those of extracted charcoal treated blank plasma spiked with the corresponding concentrations. The mean extraction recovery ranged from 109% to 91% for all compounds. The specificity of the assay was evaluated by comparison of HPLC–ESI–MS/MS chromatograms of the analytes at the LOQ to those of charcoal treated blank plasma samples in triplicate.

[3] = Stability in 20% w/v rat liver homogenate; format: in vitro ADME; conditions: 37°C; for half-life at 50 nM / remaining at 2 h, 50 nM: rat, 20% w/v rat liver homogenate; for half-life at 50 nM: read-out: Rat Liver Compd t 1/2; for remaining at 2 h, 50 nM: read-out: Percent remaining after 2 h incubation in rat liver homogenate
Description: as §1, §2

| Compound | %Compd at 6 h, pH 7.4 [1] | half-life at 50 nM ([2]; 80% v/v rat plasma, 37°C) | half-life at 50 nM ([3]; rat liver homogenate) | further results |
| --- | --- | --- | --- | --- |
| CCCCCCCCCCCCCCCC(=O)NCCOC(=O)OCOC(=O)C(C)C [compound 4, Isobutyroyloxymethyl 2-(palmitoylamino)ethyl carbonate] | 84 ± 1% | 1.1 ± 0.2 min | < 1 min | – |
| CCCCCCCCCCCCCCCC(=O)NCCOC(=O)C[C@H](N)C(=O)O.Cl [compound 29, 4-(2-(Palmitoylamino)ethyl) L-aspartate hydrochloride] | 83 ± 3% | 262 ± 35 min | 21 ± 1 min | – |
| CCCCCCCCCCCCCCCC(=O)NCCOC(=O)OCOC(C)=O [compound 3, Acetoxymethyl 2-(palmitoylamino)ethyl carbonate] | 86 ± 1% | < 1 min | < 1 min | – |
| CCCCCCCCCCCCCCCC(=O)NCCOC(=O)NCC(=O)O [compound 7, N-(2-Palmitoylamino-ethyloxy)carbonyl-glycine] | 101 ± 1% | – | 23 ± 1 min | remaining at 6 h, 50 nM ([2]; 80% v/v rat plasma, 37°C, 6 h): 96 ± 4% |
| CCCCCCCCCCCCCCCC(=O)N[C@H](C)COC(=O)[C@@H](N)C(C)C.Cl [compound 33, (2R)-2-(palmitoylamino)propyl L-valinate hydrochloride] | 93 ± 4% | 190 ± 3 min | 38 min | Rat plasma half-life relative to L-Val-PEA (20) ([2]; rat plasma): 4 fold |
| CCCCCCCCCCCCCCCC(=O)N[C@H](C)CO [compound 31, (R)-α-methyl-PEA] | 95 ± 2% | – | – | remaining at 6 h, 50 nM ([2]; 80% v/v rat plasma, 37°C, 6 h): 82 ± 4%; remaining at 2 h, 50 nM ([3]; 2 h): 87 ± 1% |
| CCCCCCCCCCCCCCCC(=O)NCCOC(=O)N[C@@H](C)C(=O)O [compound 8, N-(2-Palmitoylamino-ethyloxy)carbonyl-L-alanine] | 103 ± 3% | – | 29 ± 3 min | remaining at 6 h, 50 nM ([2]; 80% v/v rat plasma, 37°C, 6 h): 96 ± 2% |
| CCCCCCCCCCCCCCCC(=O)NCCOC(=O)[C@H](C)N.Cl [compound 19, 2-(palmitoylamino)ethyl L-alaninate hydrochloride] | 64 ± 5% | ~1 min | ~1 min | Rat Liver Compd t 1/2 ([3]; rat liver homogenate): 1.4 ± 0.5 min |
| CCCCCCCCCCCCCCCC(=O)NCCOC(=O)[C@@H](N)[C@@H](C)CC.Cl [compound 21, 2-(Palmitoylamino)ethyl L-isoleucinate hydrochloride] | 103 ± 6% | 205 ± 16 min | – | Increase in plasma half-life relative to L-Ala-PEA ([2]; rat plasma): 200 fold; remaining at 2 h, 50 nM ([3]; 2 h): 65 ± 5% |
| (S)-α-methyl-PEA [compound 30] | 96 ± 3% | – | – | Percent remaining after 6 h incubation in rat plasma ([2]; 80% v/v rat plasma, 37°C, 6 h): 80 ± 4% ^e; Percent remaining after 2 h incubation in rat liver homogenate ([3]; 2 h): 79 ± 6% ^f |
| CCCCCCCCCCCCCCCC(=O)NCCOC(=O)N[C@H](C(=O)O)C(C)C [compound 9, N-(2-Palmitoylamino-ethyloxy)carbonyl-L-valine] | 99 ± 1% | – | – | remaining at 6 h, 50 nM ([2]; 80% v/v rat plasma, 37°C, 6 h): 98 ± 1%; remaining at 2 h, 50 nM ([3]; 2 h): 92 ± 5% |
| CCCCCCCCCCCCCCCC(=O)NCCOC(=O)[C@@H](N)CCC(N)=O.Cl [compound 24, 2-(Palmitoylamino)ethyl L-glutaminate hydrochloride] | 61 ± 3% | 18 ± 1 min | ~80 min | – |
| CCCCCCCCCCCCCCCC(=O)NCCOC(=O)[C@@H](N)CC(=O)O.Cl [compound 26, 1-(2-(Palmitoylamino)ethyl) L-aspartate hydrochloride] | 85 ± 4% | 172 ± 2 min | – | remaining at 2 h, 50 nM ([3]; 2 h): 66 ± 5% |
| CCCCCCCCCCCCCCCC(=O)NCCOC(=O)[C@@H](N)CC(N)=O.Cl [compound 23, 2-(Palmitoylamino)ethyl L-asparaginate hydrochloride] | 3% and 3.3 ± 0.3% | ~9 min | 24 ± 1 min | L- and D-aspartate derivatives produced by deamidation at the side chain [1]: about 1%; half-life at 50 nM ([1]; phosphate buffered saline, pH 7.4, read-out: t 1/2 in buffered solution at pH 7.4): ~3.3 min |
| CCCCCCCCCCCCCCCC(=O)NCCOC(=O)[C@@H](N)Cc1c[nH]c2ccccc12.Cl [compound 22, 2-(Palmitoylamino)ethyl L-tryptophanate hydrochloride] | 96 ± 1% | ~5 min | ~36 min | Rat Plasma Compd t 1/2 ([2]; 80% v/v rat plasma, 37°C): 4.5 ± 0.5 min |
| CCCCCCCCCCCCCCCC(=O)NCCOC(=O)OCOC(=O)C1CCCCC1 [compound 5, (Cyclohexanelcarboxyloyloxy)methyl 2-(palmitoylamino)ethyl carbonate] | 84 ± 1% | 5 min | 1.2 ± 0.2 min | Rat Plasma Compd t 1/2 ([2]; 80% v/v rat plasma, 37°C): 5.1 ± 0.5 min |
| CCCCCCCCCCCCCCCC(=O)NCCOC(=O)[C@H](N)CC(N)=O.Cl [compound 27, 2-(Palmitoylamino)ethyl D-asparaginate hydrochloride] | 3.5 ± 0.3% | 14 ± 1 min | 55 ± 4 min | L- and D-aspartate derivatives produced by deamidation at the side chain [1]: about 1% |
